From PubChem BioAssay (NCI) come the findings set out here.

Test in all cases: growth of human tumour cells (NCI), 48 h
Test [1] has as its system EKVX NSCLC.
In test [2] the test system is LOX IMVI melanoma.
Test [3] concerns UACC-257 melanoma.
Test [4] deals with OVCAR-5 ovarian.
Test [5] deals with SK-MEL-2 melanoma.
Test [6] deals with SNB-78 CNS.
In test [7] the test system is DMS 273 small cell lung.
The subject of test [8] is ACHN renal.
Test [9] relates to HT29 colon.
Test [10] relates to 786-0 renal.

SMILES strings stand for the structures. “And” between values parts separate entries of the source, which are not always exact repeats. Equal values may be shown once.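 Compound exposure: 48 hours, 5 concentrations, 96-well plates. GI50 is the concentration that inhibits growth by half. TGI: concentration producing complete growth inhibition.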

`Nc1nc(-c2ccc(Cl)c([N+](=O)[O-])c2)cs1`: the TGI in test [1], in [2], in test [3], in test [4], in test [5] and in [6] was greater than 100 µM in each case. The TGI in test [7], in test [8], in test [9] and in test [10] was greater than 100 µM throughout.

For the molecule `CCOCN1COCN(C)C1=O`, the TGI in test [1], in [2], in [3], in test [4], in test [5] and in test [6] was greater than 100 µM throughout. Further, the TGI in test [7], in test [8], in [9] and in [10] was greater than 100 µM each time.

`CN(C)C(=S)SSC(=S)N(C)C`: the GI50 in test [1] is 22 µM and > 73.4 µM and 18.6 µM; in [2], 14.9 µM and 5.4 µM and 22.7 µM; in test [3] it was 15 µM and 4.06 µM and 28.4 µM; in test [4], 14.9 µM and > 58.4 µM and 16.6 µM; in test [5] it was 34.2 µM and 57 µM and 17 µM; in test [8], 15.7 µM and 55.6 µM and 19.7 µM. For the same molecule, the GI50 is 0.112 µM and 0.29 µM in [9]; 18.2 µM and 35.2 µM and 17.3 µM in [10]. Further, the TGI is 96.3 µM and > 100 µM and 35.1 µM in test [1]; 28.8 µM and 21.4 µM and > 55 µM in test [2]; 30.5 µM and 39.9 µM and > 55.7 µM in test [3]; 28.2 µM and > 72.6 µM and 33.5 µM in test [4]; > 100 µM and 39.4 µM in [5]; greater than 100 µM in test [6]. The TGI in test [7] was greater than 100 µM; in test [8], 30.2 µM and > 100 µM and 37.1 µM; in [9], > 54.9 µM and 30.7 µM; in [10] it was 33.4 µM and > 80.9 µM and 36.5 µM.

Turning to `NC(=O)C(=O)CC(=O)c1ccccc1NC1=CC(=O)C(=O)c2ccccc21`, the TGI in test [1] is greater than 100 µM; in test [2], 36.1 µM; in test [3] it was greater than 75.7 µM; in test [4], greater than 100 µM; in test [5], greater than 100 µM; in [6], greater than 100 µM. Besides, the TGI in [7], in test [8], in test [9] and in [10] was greater than 100 µM in each case.
